In series [1] the target is T1, human SGLT-2 (Homo sapiens, UniProt P31639).
T1 construct: expressed in transfected cells; host or cells: CHO cells (Flp-in CHO)
T1 sequence (P31639 1-672): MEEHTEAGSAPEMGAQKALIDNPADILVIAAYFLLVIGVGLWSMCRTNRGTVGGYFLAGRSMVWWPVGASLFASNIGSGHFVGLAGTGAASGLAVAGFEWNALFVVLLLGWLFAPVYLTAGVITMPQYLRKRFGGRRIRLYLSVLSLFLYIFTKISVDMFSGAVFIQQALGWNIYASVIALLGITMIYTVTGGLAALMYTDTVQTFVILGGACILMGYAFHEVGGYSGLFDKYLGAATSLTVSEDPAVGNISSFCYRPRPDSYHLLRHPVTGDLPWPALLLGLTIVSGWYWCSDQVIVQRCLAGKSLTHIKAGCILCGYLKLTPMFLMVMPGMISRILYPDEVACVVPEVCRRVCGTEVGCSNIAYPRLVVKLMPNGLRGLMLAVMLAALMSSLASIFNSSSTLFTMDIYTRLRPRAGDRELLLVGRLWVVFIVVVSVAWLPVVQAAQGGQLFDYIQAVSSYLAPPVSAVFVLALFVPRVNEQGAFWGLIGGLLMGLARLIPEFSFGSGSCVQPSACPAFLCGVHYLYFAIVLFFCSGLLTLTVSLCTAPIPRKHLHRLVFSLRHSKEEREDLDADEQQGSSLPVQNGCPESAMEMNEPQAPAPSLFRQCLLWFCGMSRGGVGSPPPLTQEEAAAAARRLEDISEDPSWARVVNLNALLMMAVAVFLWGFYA
Nature of the series: Inhibitory activity against SGLT-2, [14C]-AMG uptake in CHO cells. The format is cell-based. As to the method: The following method was used for detecting inhibitory activity of the compounds of the invention against SGLT-1 and SGLT-2.
3×10^4 of FIP-in CHO cells transfected Mock and CHO cells expressing human SGLT-1/SGLT-2 gene were seeded into a 96-well cell culture plate; the cells were incubated for 12 hours, and then to each well was added 150 μL of Na-free buffer to wash the cells once; and then to each well were added 50 μL of Na buffer containing the compound at different concentrations and 0.5 μM [^14C]-AMG, and the plate was incubated in a incubator at 37° C. for 1 hour, the reaction was terminated by adding 150 μL of pre-cooled Na-free buffer; the cells were further washed with Na-free buffer 3 times and the residual liquid was removed; to each well was added 20 μL of pre-cooled NaOH ([…]), the plate was vibrated at 900 rpm for 5 min; and then to each well was added 80 μL of scintillation solution, the plate was vibrated at 600 rpm for 5 min; the plate was analyzed on liquid scintillation counter.

Series [2] is described as follows: Measurement of stability (high-temperature, high-humidity and photostability tests; HPLC impurity content). The note with it: for total impurity / purity: 210 nm. The format is physicochemical. How it is done: An appropriate amount of the Complex (IA) sample (prepared from example 2) was weighed and tiled on a clean culture dish at a thickness of ≤5 mm, and analyzed under the following conditions:
The test sample was placed under a high temperature condition (60±2° C.) for 10 d, the relative indexes were measured at the fifth and tenth days. […] If no significant change, the test at 40° C. was not necessary.
The test sample was placed under a 25° C. and RH 90%±5% condition for 10 d, and the sample were measured at the fifth and tenth days. Test items should include a moisture-absorption weight gain. If weighting percentage of moisture absorption was more than 5%, the test should be carried out under a 25° C. and RH 75%±5% condition using the same method; If weighting percentage of moisture absorption was less than 5%, and other inspection items met the requirements, the test was not necessary. The constant humidity condition can be realized by adopting constant temperature humidity chamber or placing a saturated saline solution under a closed container. […]
The test sample was placed in light box or other suitable light vessel under a 4500 Lx±500 Lx of illuminance condition for 10 d, and the sample were measured at the fifth and tenth days.
The impurity content of the sample was calculated by the normalization method of peak area using an HPLC chromatographic instrument under the above condition, the analytic conditions were shown below:
The detection was performed on Agilent 1200DAD high pressure liquid chromatography spectrometer (Zorbax Eclipse Plus C18 150×4.6 mm chromatographic column).
The test condition of HPLC: the run time was 30 minutes (min); the column temperature was 35° C.; the detection was carried out at the wavelength of 210 nm and 225 nm;
Mobile phase: phase C: acetonitrile phase D: ultrapure water flow rate: 1.0 mL/min.
Gradient elution, the ratio of mobile phase was shown as table B.

Where [3] appears, read: high humidity (25° C., RH 90%±5%), 5 d, HPLC.
Setting [4] is: high humidity (25° C., RH 90%±5%), 10 d, HPLC.
Setting [5] is: high-temperature (60±2° C.), 5 d, HPLC.
[6] abbreviates: high-temperature (60±2° C.), 10 d, HPLC.
Setting [7] is: illumination (4500 Lx±500 Lx), 5 d, HPLC.
Setting [8] is: illumination (4500 Lx±500 Lx), 10 d, HPLC.

Structures are written as SMILES.

Take `CCOc1ccc(Cc2cc([C@]34OC[C@]([C@@H](C)O)(O3)[C@@H](O)[C@H](O)[C@H]4O)ccc2Cl)cc1` [Complex (IA), Complex (IA) of (1R,2S,3S,4R,5S)-5-(4-chloro-3-(4-ethoxybenzyl)phenyl)-1-((1R)-1-hydroxyethyl)-6,8-dioxabicyclo[3.2.1]octane-2,3,4-triol (I-n) and L-pyroglutamic acid]: the SGLT-2 inhibitory activity result in series [1] (CHO cells expressing human SGLT-2, [14C]-AMG) is “has SGLT-2 and SGLT-1 inhibitory activity”. Also, in series [1] (SGLT-2 versus SGLT-1), the “inhibitory activity to SGLT-2 compared with SGLT-1” value is “the inhibitory activity to SGLT-2 is much more stronger than that to SGLT-1”. For the same compound, the total impurity in series [2] (0 d, HPLC peak area normalization) came to 0.15%; in series [2] (setting [3]), 0.15%; in series [2] (setting [4]), 0.19%; in series [2] (setting [5]), 0.17%; in series [2] (setting [6]), 0.19%; in series [2] (setting [7]), 0.17%. The compound also gave a total impurity in series [2] (setting [8]) of 0.22%. The purity in series [2] (0 d, HPLC) is recorded as 99.85%; in series [2] (setting [3]), 99.85%; in series [2] (setting [4]) it was 99.81%; in series [2] (setting [5]), 99.83%; in series [2] (setting [6]), 99.81%; in series [2] (setting [7]) it was 99.83%. The compound also came in with a purity in series [2] (setting [8]) of 99.78%. The “stability (summary in words)” value in series [2] (high-temperature, high humidity or illumination for 10 d) is “good stability”.
